According to patent US8394592B2, “Methods for assessing cancer susceptibility to carcinogens in tobacco products” (The Board of Regents of the University of Texas System, priority 2006, dated 2013):

System: peripheral blood lymphocytes
Experiment: Cytokinesis-block micronucleus (CBMN) assay, NNK-treated lymphocyte cultures of lung cancer cases and controls
Assay type: cell-based, human
Conditions: 0.24 mM NNK
Method: The CBMN test was performed using the cytochalasin B technique described by Fenech and Morley (22) and following recommendations from The International Collaborative Project on Micronucleus Frequency in Human Populations (HUMN Project) to measure MN, NPBs and NBUDs in untreated cells and NNK-treated cells (27). Duplicate lymphocyte cultures were prepared for each study subject. Each culture contained 2.0×10^6 cells in 5 mL RPMI 1640 medium supplemented with 100 U/mL penicillin, 100 μg/mL streptomycin, 10% fetal bovine serum, and 2 mM L-glutamine (Gibco-Invitrogen, Carlsbad, Calif.) and 1% phytohemagglutinin (Remel, Lenexa, Kans.). For the cultures treated with NNK, 24 hours after initiation, the PBLs were centrifuged and the supernatant growth medium was removed and reserved. The PBLs were resuspended in 5 mL of serum-free RPMI 1640 medium supplemented with 0.24 mM NNK (a dose previously used by us and others (23-26) (CAS No. 64091-91-4, National Cancer Institute, Midwest Carcinogen Repository, Kansas City, Mo.; purity>98%) and incubated at 37° C. in the presence of 5% CO2 for 2 hours.
Next, the PBLs were washed twice with serum-free RPMI 1640, transferred to clean tubes and re-incubated for […] in the reserved supernatant. At 44 hours after initiation, cells were blocked in cytokinesis by adding cytochalasin B (Sigma, St. Louis, Mo.; final concentration 4 µg/mL). Similarly, cultures for the determination of spontaneous damage (untreated cells) were handled in the same manner, with the exception of treatment with NNK. The total incubation time for all cultures was 72 hours. After incubation, the cells were fixed in 3:1 methanol:glacial acetic acid, dropped onto clean microscopic slides, air-dried and stained with Giemsa stain. For each sample, 1000 binucleated cells were scored blindly using a Nikon E-400 light optical microscope following the scoring criteria outlined by HUMN Project (2,22,27); the numbers of MN, NPBs, and NBUDs per 1000 binucleated cells were recorded. For quality control, 20% of the slides were randomly selected and blindly rescored and the results compared with the original scoring.

[1] = Case, History of Alcohol Use No
[2] = Case, History of Alcohol Use Yes

CN(CCCC(=O)c1cccnc1)N=O [NNK, 4-(methylnitrosamino)-1-(3-pyridyl)-1-butanone]
NNK-induced MN, Mean ± SE (Case, Age > 62): 4.54 ± 0.22 per 1000 binucleated cells | NNK-induced MN, Median (Case, Age > 62): 4.0 per 1000 binucleated cells | NNK-induced NBUDs, Mean ± SE (Case, Age > 62): 0.90 ± 0.17 per 1000 binucleated cells | NNK-induced NBUDs, Median (Case, Age > 62): 1.0 per 1000 binucleated cells | NNK-induced NPBs, Mean ± SE (Case, Age > 62): 8.15 ± 0.33 per 1000 binucleated cells | NNK-induced NPBs, Median (Case, Age > 62): 8.0 per 1000 binucleated cells | NNK-induced MN, Mean ± SE (Case, Age ≦ 62): 4.22 ± 0.11 per 1000 binucleated cells | NNK-induced MN, Median (Case, Age ≦ 62): 4.0 per 1000 binucleated cells | NNK-induced NBUDs, Mean ± SE (Case, Age ≦ 62): 1.12 ± 0.11 per 1000 binucleated cells | NNK-induced NBUDs, Median (Case, Age ≦ 62): 1.0 per 1000 binucleated cells | NNK-induced NPBs, Mean ± SE (Case, Age ≦ 62): 8.11 ± 0.23 per 1000 binucleated cells | NNK-induced NPBs, Median (Case, Age ≦ 62): 8.0 per 1000 binucleated cells | NNK-induced MN, Mean ± SE (Case, Females): 4.19 ± 0.17 per 1000 binucleated cells | NNK-induced MN, Median (Case, Females): 4.0 per 1000 binucleated cells | NNK-induced NBUDs, Mean ± SE (Case, Females): 1.07 ± 0.12 per 1000 binucleated cells | NNK-induced NBUDs, Median (Case, Females): 1.0 per 1000 binucleated cells | NNK-induced NPBs, Mean ± SE (Case, Females): 8.24 ± 0.32 per 1000 binucleated cells | NNK-induced NPBs, Median (Case, Females): 8.0 per 1000 binucleated cells | NNK-induced MN, Mean ± SE [1]: 4.26 ± 0.14 per 1000 binucleated cells | NNK-induced MN, Median [1]: 4.00 per 1000 binucleated cells | NNK-induced NBUDs, Mean ± SE [1]: 1.09 ± 0.18 per 1000 binucleated cells | NNK-induced NBUDs, Median [1]: 1.00 per 1000 binucleated cells | NNK-induced NPBs, Mean ± SE [1]: 8.04 ± 0.32 per 1000 binucleated cells | NNK-induced NPBs, Median [1]: 8.00 per 1000 binucleated cells | NNK-induced MN, Mean ± SE [2]: 4.37 ± 0.14 per 1000 binucleated cells | NNK-induced MN, Median [2]: 4.00 per 1000 binucleated cells | NNK-induced NBUDs, Mean ± SE [2]: 1.04 ± 0.11 per 1000 binucleated cells | NNK-induced NBUDs, Median [2]: 1.00 per 1000 binucleated cells | NNK-induced NPBs, Mean ± SE [2]: 8.14 ± 0.24 per 1000 binucleated cells | NNK-induced NPBs, Median [2]: 8.00 per 1000 binucleated cells | NNK-induced MN, Mean ± SE (Case, Males): 4.37 ± 0.13 per 1000 binucleated cells | NNK-induced MN, Median (Case, Males): 4.0 per 1000 binucleated cells | NNK-induced NBUDs, Mean ± SE (Case, Males): 1.07 ± 0.11 per 1000 binucleated cells | NNK-induced NBUDs, Median (Case, Males): 1.0 per 1000 binucleated cells | NNK-induced NPBs, Mean ± SE (Case, Males): 8.07 ± 0.23 per 1000 binucleated cells | NNK-induced NPBs, Median (Case, Males): 8.0 per 1000 binucleated cells | NNK-induced MN, Mean ± SE (Case, Overall): 4.32±0.10 per 1000 binucleated cells | NNK-induced MN, Median (Case, Overall): 4.0 per 1000 binucleated cells | NNK-induced NBUDs, Mean ± SE (Case, Overall): 1.07±0.09 per 1000 binucleated cells | NNK-induced NBUDs, Median (Case, Overall): 1.0 per 1000 binucleated cells | NNK-induced NPBs, Mean ± SE (Case, Overall): 8.12±0.19 per 1000 binucleated cells | NNK-induced NPBs, Median (Case, Overall): 8.0 per 1000 binucleated cells | NNK-induced MN, Mean ± SE (Case, Years smoked > 32): 4.33 ± 0.10 per 1000 binucleated cells | NNK-induced MN, Median (Case, Years smoked > 32): 4.0 per 1000 binucleated cells | NNK-induced NBUDs, Mean ± SE (Case, Years smoked > 32): 1.08 ± 0.01 per 1000 binucleated cells | NNK-induced NBUDs, Median (Case, Years smoked > 32): 1.0 per 1000 binucleated cells | NNK-induced NPBs, Mean ± SE (Case, Years smoked > 32): 8.07 ± 0.19 per 1000 binucleated cells | NNK-induced NPBs, Median (Case, Years smoked > 32): 8.0 per 1000 binucleated cells | NNK-induced MN, Mean ± SE (Case, Years smoked ≦ 32): 3.63 ± 0.32 per 1000 binucleated cells | NNK-induced MN, Median (Case, Years smoked ≦ 32): 4.0 per 1000 binucleated cells | NNK-induced NBUDs, Mean ± SE (Case, Years smoked ≦ 32): 1.13 ± 0.44 per 1000 binucleated cells | NNK-induced NBUDs, Median (Case, Years smoked ≦ 32): 1.0 per 1000 binucleated cells | NNK-induced NPBs, Mean ± SE (Case, Years smoked ≦ 32): 9.25 ± 0.96 per 1000 binucleated cells | NNK-induced NPBs, Median (Case, Years smoked ≦ 32): 8.3 per 1000 binucleated cells | NNK-induced MN, Mean ± SE (Control, Age > 62): 2.75 ± 0.15 per 1000 binucleated cells | NNK-induced MN, Median (Control, Age > 62): 3.0 per 1000 binucleated cells | NNK-induced NBUDs, Mean ± SE (Control, Age > 62): 0.10 ± 0.05 per 1000 binucleated cells | NNK-induced NBUDs, Median (Control, Age > 62): 0.0 per 1000 binucleated cells | NNK-induced NPBs, Mean ± SE (Control, Age > 62): 2.35 ± 0.14 per 1000 binucleated cells | NNK-induced NPBs, Median (Control, Age > 62): 2.0 per 1000 binucleated cells | NNK-induced MN, Mean ± SE (Control, Age ≦ 62): 2.58 ± 0.14 per 1000 binucleated cells | NNK-induced MN, Median (Control, Age ≦ 62): 2.0 per 1000 binucleated cells | NNK-induced NBUDs, Mean ± SE (Control, Age ≦ 62): 0.13 ± 0.04 per 1000 binucleated cells | NNK-induced NBUDs, Median (Control, Age ≦ 62): 0.0 per 1000 binucleated cells | NNK-induced NPBs, Mean ± SE (Control, Age ≦ 62): 2.41 ± 0.11 per 1000 binucleated cells | NNK-induced NPBs, Median (Control, Age ≦ 62): 2.0 per 1000 binucleated cells | NNK-induced MN, Mean ± SE (Control, Females): 2.51 ± 0.23 per 1000 binucleated cells | NNK-induced MN, Median (Control, Females): 2.0 per 1000 binucleated cells | NNK-induced NBUDs, Mean ± SE (Control, Females): 0.11 ± 0.05 per 1000 binucleated cells | NNK-induced NBUDs, Median (Control, Females): 1.0 per 1000 binucleated cells
